According to patent US7781420B2, “Use of clodronic acid for treatment podotrochlosis” (Omnimedic GbR, priority 2005, dated 2010):

Experiments:
[1] = system: horses who suffer from podotrochlosis; assay: treatment of podotrochlosis with associated osteoporosis in horses by two to five intramuscular injections; format: in vivo, horse; details: for therapeutic success in the treatment of podotrochlosis with associated osteoporosis: intramuscular injections
Procedure: To achieve the desired therapeutic success or else prophylactic success, a dosage regimen in which the pharmaceutical is administered by two to five intramuscular injections within a period of up to several days, such as approximately 3 consecutive days, but preferably within one day, must be adhered to. Here, the administration of the pharmaceutical may be effected in a dosage of, per injection, 0.125-2.5 mg, preferably 0.25-1 mg, particularly preferably approximately 0.6 mg of active ingredient/kg body weight. For a horse with a weight of 500 kg, a total dose of 250-2500 mg, preferably 400-1500 mg, especially preferably approximately 800 to 1000 mg of active ingredient, distributed over 2 to 5 injections, preferably 3 injections, is aimed at. With a horse with a weight of 500 kg, it is therefore especially preferable to administer 900 mg of active ingredient, divided over 3 injections of 300 mg each, within one day. The pharmaceutical is injected intramuscularly, preferably into the neck, chest and gluteal muscles of the horse. In the case of 3 injections, it is preferred to administer two injections into the neck muscles (on the left and right side), especially preferably approximately one hand's width under the crest and approximately one hand's width above the scapula, and one injection into the breast muscles. The 2 to 5 injections are expediently given directly one after the other.
After approximately 14 days, a pronounced improvement of the clinical symptoms is observed in nearly all horses. After approximately 4-6 weeks, the clinical picture has stabilized and established such that the therapeutic success can be defined. After approximately 10 to 14 months, the clinical symptoms will, as a rule, deteriorate. The treatment may then be repeated once or more than once, with equally good success. In this manner, the treated horses can be kept free from lameness over several years.
For example, the therapeutic success in a gelding who had suffered from podotrochlosis and who had not been able to be ridden, let alone used as a sports horses for about 3 years was so good after employing the pharmaceutical described in accordance with the invention that the gelding could afterwards be used intensively and successfully for 6 years as a showjumper.

podotrochlosis = details: in vivo; cited from earlier work

Structure (SMILES)	side effects ([1]; at least 350 horses pretreated with conventional therapies without success)	time until pronounced improvement of the clinical symptoms is observed in nearly all horses ([1]; horses, after treatment)	time until the clinical picture has stabilized and established ([1]; horses, after treatment)	therapeutic success in the treatment of podotrochlosis with associated osteoporosis ([1]; horses)	therapeutic success in the treatment of podotrochlosis with associated osteoporosis ([1]; horses, listed as pharmaceutical described in accordance with the invention)	freedom from lameness ([1]; many of the treated horses, regular use of the pharmaceutical)	time used intensively and successfully as a showjumper after treatment ([1]; single gelding, not able to be ridden for about 3 years before treatment) [years]	effect on podotrochlosis (podotrochlosis)	side effects (podotrochlosis)
O=P(O)(O)C(Cl)(Cl)P(=O)(O)O [clodronic acid, (dichloromethylene)bis(phosphonic acid)]	without suffering side effects	approximately 14 days	4-6 weeks	outstanding therapeutic successes	successful therapy	free from lameness for several years	6	–	–
O=P(O)(O)C(Sc1ccc(Cl)cc1)P(=O)(O)O [tiludronate]	–	–	–	–	–	–	–	healing effect	substantial side effects such as colic
